Series [1] in a line: Comparative bioavailability study, monomethyl fumarate plasma pharmacokinetics, single dose, fasting. It is filed as in vivo, human. The conditions noted are these: Treatment A over Treatment B normalized to 180 mg DMF.
Procedure: This was a single center, pilot, comparative bioavailability, open-label, randomized, single-dose, 2-period, 2-sequence, crossover study under fasting conditions. A total of 12 healthy adult male or female volunteers were included in this pilot study. For each period, subjects will be confined from at least 10 hours before dosing until 12 hours post-dose. There were a washout of 7 days or more between doses. The washout period could be increased for logistical considerations. Participation of each subject in this study lasted approximately 9 days.
The delayed-release capsule were placed on the subject's tongue. Subjects were instructed to suck the delayed-release capsule until the acetylsalicylic acid coating was dissolved or up to a maximum of 1 minute after the delayed-release capsule had been placed on the subject's tongue. The delayed-release capsule should not be chewed, bitten, or swallowed during that 1 minute period or until the coating is dissolved; only the saliva could be swallowed. The subject was instructed to give a hand sign once the acetylsalicylic acid coating was dissolved (the capsule should feel and taste different). Thereafter, or up to a maximum of 1 minute after the delayed-release capsule was placed on the subject's tongue, 240 mL of water was given to subjects to swallow the capsule. Time of dosing was set to the time the capsule was placed on the tongue. […]
The conditions of series [2]: pretreatment with 325 mg aspirin for 4 days before DMF; cited from earlier work.

Structures are written as SMILES.

With `CC(=O)Oc1ccccc1C(=O)O` [aspirin, acetylsalicylic acid], the “Cmax Change % (A over B)” value in series [1] is “did not have significant impact”. For the same molecule, in series [2], the “flushing incidence and intensity” value is given as “reduced”; the gastrointestinal events entry was “did not affect”; the “pharmacokinetic profile of DMF” value is reported as “did not affect”.

The values are drawn from patent US11013751B2, “Compositions and methods for treating multiple sclerosis” (Vitalis LLC, priority 2017, dated 2021).
